# Measured values published in patent US11884671B2, “Purinone compounds and their use in treating cancer” (ASTRAZENECA AB, priority 2018, dated 2024).
# Tests used:
# TTK = TTK (Homo sapiens (Human), UniProt P33981); test: TTK enzyme assay (LanthaScreen Eu Kinase Binding); settings: arithmetic mean of two or more experiments; for IC50: read-out: TTK enz pIC50 (converted)
# JAK1 = JAK1 (Homo sapiens (Human), UniProt P23458); test: JAK1 enzyme assay (Z'-LYTE); assay type: biochemical; settings: 75 μM ATP, arithmetic mean of two or more experiments; for IC50: read-out: JAK1 enz pIC50 (converted)
# JAK2 = JAK2 (Homo sapiens (Human), UniProt O60674); test: JAK2 enzyme assay (Z'-LYTE); assay type: biochemical; settings: 25 μM ATP, arithmetic mean of two or more experiments; for IC50: read-out: JAK2 enz pIC50 (converted)
# JAK3 = JAK3 (Homo sapiens (Human), UniProt P52333); test: JAK3 enzyme assay (Z'-LYTE); assay type: biochemical; settings: 10 μM ATP, arithmetic mean of two or more experiments; for IC50: read-out: JAK3 enz pIC50 (converted)
# AURKA (Aurora A) = AURKA (Aurora A) (Homo sapiens (Human), UniProt O14965); test: Aurora-A enzyme assay (Z'-LYTE); assay type: biochemical; settings: 10 μM ATP, arithmetic mean of two or more experiments; for IC50: read-out: AurA enz pIC50 (converted)
# AURKB (Aurora B) = AURKB (Aurora B) (Homo sapiens (Human), UniProt Q96GD4); test: Aurora-B enzyme assay (Z'-LYTE); assay type: biochemical; settings: 75 μM ATP, arithmetic mean of two or more experiments; for IC50: read-out: AurB enz pIC50 (converted)
# Chain of AURKB (Aurora B) (Q96GD4 whole entry): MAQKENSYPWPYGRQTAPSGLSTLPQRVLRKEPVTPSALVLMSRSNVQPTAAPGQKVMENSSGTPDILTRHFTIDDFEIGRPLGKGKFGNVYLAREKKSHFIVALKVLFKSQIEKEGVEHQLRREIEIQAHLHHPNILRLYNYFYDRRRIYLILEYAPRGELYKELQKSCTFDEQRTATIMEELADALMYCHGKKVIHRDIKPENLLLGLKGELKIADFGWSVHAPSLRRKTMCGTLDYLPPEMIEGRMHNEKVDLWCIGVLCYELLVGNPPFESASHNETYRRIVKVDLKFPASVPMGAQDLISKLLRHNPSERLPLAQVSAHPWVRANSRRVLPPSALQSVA
# Chain of JAK1 (P23458 whole entry): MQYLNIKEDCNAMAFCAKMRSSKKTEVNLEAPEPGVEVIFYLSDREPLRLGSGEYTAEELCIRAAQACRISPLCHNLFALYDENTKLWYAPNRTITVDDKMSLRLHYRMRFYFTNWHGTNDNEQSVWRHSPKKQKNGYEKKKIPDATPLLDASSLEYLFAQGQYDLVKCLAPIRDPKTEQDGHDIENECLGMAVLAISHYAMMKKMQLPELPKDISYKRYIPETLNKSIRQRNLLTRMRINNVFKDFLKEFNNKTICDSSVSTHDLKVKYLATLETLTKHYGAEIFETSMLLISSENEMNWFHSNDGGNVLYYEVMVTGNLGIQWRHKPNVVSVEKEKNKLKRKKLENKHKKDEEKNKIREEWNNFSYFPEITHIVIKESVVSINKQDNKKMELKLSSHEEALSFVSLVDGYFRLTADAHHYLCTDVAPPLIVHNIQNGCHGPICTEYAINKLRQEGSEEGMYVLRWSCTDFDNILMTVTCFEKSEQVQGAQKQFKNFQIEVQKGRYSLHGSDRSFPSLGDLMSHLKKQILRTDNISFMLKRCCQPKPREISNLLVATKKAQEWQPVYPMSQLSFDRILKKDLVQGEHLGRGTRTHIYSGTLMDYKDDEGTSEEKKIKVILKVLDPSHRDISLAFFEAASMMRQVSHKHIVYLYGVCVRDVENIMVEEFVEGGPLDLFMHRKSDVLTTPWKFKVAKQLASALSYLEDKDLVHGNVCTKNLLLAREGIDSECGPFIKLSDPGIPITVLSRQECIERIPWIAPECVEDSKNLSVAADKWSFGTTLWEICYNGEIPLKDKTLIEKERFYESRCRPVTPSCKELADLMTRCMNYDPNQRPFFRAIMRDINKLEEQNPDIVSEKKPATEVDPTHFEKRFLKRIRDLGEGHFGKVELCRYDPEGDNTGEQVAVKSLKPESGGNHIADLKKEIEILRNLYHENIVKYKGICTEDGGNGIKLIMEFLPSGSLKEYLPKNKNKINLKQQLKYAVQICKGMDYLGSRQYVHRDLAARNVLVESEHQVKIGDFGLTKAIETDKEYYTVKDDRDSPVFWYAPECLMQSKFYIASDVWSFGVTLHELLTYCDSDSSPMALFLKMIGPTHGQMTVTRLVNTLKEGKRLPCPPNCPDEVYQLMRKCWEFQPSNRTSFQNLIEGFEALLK
# Chain of JAK2 (O60674 whole entry): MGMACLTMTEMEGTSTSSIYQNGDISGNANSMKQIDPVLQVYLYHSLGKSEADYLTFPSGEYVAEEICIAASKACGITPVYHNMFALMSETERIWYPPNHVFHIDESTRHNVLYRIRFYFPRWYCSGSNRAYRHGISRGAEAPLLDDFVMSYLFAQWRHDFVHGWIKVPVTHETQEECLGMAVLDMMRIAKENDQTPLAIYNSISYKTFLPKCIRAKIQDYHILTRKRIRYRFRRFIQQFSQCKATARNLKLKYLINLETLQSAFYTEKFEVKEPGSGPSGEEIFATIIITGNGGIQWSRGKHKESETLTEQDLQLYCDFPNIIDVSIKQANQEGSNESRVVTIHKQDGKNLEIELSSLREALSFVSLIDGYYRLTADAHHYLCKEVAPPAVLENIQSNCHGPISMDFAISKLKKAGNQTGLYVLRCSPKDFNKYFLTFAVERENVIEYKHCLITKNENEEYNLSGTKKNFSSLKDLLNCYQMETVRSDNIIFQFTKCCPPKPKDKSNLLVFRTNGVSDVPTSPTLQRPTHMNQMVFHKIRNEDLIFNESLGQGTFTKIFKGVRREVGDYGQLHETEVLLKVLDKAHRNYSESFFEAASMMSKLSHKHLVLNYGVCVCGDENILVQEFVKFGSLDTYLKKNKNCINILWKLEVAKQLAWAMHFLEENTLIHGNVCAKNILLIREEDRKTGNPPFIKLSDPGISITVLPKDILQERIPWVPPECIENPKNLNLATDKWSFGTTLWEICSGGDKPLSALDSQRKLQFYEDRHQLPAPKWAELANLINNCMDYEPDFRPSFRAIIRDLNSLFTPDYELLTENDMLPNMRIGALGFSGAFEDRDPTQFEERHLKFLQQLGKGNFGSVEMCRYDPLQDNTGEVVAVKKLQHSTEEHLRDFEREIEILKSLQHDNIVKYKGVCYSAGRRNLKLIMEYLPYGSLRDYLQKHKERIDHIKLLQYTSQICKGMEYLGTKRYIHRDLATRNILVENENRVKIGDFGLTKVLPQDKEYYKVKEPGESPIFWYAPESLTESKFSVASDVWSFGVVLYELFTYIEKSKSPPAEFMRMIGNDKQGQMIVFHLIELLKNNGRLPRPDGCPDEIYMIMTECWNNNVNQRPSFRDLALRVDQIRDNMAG
# Chain of JAK3 (P52333 whole entry): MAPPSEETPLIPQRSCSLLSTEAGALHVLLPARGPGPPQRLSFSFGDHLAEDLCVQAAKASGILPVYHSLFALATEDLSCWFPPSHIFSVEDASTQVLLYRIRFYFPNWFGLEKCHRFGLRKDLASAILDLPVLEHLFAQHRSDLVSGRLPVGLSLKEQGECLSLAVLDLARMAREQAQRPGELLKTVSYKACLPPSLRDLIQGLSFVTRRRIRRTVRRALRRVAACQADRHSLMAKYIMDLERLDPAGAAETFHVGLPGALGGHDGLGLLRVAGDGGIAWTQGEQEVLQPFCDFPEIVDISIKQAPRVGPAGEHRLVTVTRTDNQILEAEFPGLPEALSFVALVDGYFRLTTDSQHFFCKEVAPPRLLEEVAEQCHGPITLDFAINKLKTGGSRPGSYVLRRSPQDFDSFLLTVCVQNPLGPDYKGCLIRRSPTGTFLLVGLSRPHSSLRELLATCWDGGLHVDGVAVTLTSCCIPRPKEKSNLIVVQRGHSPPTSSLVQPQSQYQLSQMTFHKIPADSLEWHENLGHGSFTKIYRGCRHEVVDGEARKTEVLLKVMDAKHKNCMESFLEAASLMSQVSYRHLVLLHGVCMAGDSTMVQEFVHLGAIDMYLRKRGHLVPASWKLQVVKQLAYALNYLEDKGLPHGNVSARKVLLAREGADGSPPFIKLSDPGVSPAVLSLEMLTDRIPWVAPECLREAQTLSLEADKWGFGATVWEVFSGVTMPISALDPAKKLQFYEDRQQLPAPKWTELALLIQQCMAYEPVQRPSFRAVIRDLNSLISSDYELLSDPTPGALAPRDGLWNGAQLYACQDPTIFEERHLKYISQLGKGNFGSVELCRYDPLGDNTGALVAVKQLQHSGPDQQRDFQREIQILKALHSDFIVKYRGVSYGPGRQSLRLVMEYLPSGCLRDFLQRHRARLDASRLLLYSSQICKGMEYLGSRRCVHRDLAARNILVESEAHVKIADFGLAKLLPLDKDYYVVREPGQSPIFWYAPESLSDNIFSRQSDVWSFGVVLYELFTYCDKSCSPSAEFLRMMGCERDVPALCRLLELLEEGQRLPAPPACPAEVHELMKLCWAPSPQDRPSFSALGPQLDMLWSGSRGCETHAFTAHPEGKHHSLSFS
# Chain of TTK (P33981 whole entry): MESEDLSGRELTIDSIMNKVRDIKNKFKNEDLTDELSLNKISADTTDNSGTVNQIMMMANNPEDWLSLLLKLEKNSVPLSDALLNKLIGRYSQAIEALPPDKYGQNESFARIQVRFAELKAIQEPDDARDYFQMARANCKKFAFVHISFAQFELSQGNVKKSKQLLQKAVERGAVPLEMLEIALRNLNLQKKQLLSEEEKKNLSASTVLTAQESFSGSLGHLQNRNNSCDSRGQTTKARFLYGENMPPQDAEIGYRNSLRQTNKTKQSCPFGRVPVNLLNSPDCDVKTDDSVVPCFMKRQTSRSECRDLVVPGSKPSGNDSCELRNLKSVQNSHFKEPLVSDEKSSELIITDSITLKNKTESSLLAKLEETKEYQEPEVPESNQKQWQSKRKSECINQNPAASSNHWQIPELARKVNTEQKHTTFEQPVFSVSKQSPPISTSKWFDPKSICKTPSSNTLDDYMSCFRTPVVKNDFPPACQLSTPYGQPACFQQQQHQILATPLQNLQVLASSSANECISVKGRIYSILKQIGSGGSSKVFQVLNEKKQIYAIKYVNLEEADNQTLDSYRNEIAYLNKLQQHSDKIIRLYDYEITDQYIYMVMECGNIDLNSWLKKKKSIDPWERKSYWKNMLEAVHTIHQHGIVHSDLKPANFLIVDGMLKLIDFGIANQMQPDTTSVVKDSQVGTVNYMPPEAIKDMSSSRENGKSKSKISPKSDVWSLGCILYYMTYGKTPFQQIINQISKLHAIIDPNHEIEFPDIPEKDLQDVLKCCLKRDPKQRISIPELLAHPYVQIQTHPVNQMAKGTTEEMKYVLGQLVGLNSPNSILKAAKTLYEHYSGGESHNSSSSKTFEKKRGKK
# Chain of AURKA (Aurora A) (O14965 whole entry): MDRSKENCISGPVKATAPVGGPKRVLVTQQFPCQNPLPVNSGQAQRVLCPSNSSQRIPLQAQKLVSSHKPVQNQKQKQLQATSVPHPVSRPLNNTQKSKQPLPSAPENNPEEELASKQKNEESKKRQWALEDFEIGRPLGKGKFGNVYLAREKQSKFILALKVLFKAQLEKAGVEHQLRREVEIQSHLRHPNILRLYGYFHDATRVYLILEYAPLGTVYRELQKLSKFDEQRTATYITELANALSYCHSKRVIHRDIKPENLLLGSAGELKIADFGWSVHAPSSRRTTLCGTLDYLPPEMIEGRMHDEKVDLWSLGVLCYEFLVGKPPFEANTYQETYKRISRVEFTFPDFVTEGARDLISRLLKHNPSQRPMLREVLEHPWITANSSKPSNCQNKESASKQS
SMILES,IC50 (TTK) [nM],IC50 (JAK1) [µM],IC50 (JAK2) [µM],IC50 (JAK3) [µM],IC50 (AURKA (Aurora A)) [µM],IC50 (AURKB (Aurora B)) [µM],TTK enz pIC50 (TTK),JAK1 enz pIC50 (JAK1),JAK2 enz pIC50 (JAK2),JAK3 enz pIC50 (JAK3),AurA enz pIC50 (AURKA (Aurora A)),AurB enz pIC50 (AURKB (Aurora B))
"Cc1cc2nccnc2cc1Nc1ncc2c(n1)n([C@H]1CC[C@H](O)CC1)c(=O)n2C [Example 10, 9-((1r,4r)-4-hydroxycyclohexyl)-7-methyl-2-((7-methylquinoxalin-6-yl)amino)-7,9-dihydro-8H-purin-8-one]",398,> 10,> 10,> 10,> 10,> 10,–,–,–,–,–,–
"CC(=O)N1CCC(n2c(=O)n(C)c3cnc(Nc4cc5nc(C)cnc5cc4C)nc32)CC1 [Example 5, 9-(1-acetylpiperidin-4-yl)-2-((3,7-dimethylquinoxalin-6-yl)amino)-7-methyl-7,9-dihydro-8H-purin-8-one]",–,–,–,–,–,–,5.3,<5,<5,<5,<5,<5
"Cc1cc2ncccc2cc1Nc1ncc2c(n1)n([C@H]1CC[C@@](C)(N)CC1)c(=O)n2C [Example 39, 9-((1s,4s)-4-amino-4-methylcyclohexyl)-7-methyl-2-((7-methylquinolin-6-yl)amino)-7,9-dihydro-8H-purin-8-one]",3980,> 10,> 10,> 10,> 10,> 10,–,–,–,–,–,–
"Cc1cc2ncccc2cc1Nc1ncc2c(n1)n(C1CCN(CCO)CC1)c(=O)n2C [Example 48, 9-(1-(2-hydroxyethyl)piperidin-4-yl)-7-methyl-2-((7-methylquinolin-6-yl)amino)-7,9-dihydro-8H-purin-8-one]",–,–,–,–,–,–,5.9,<5,<5,<5,<5,<5
"Cc1cc2nccnc2cc1Nc1ncc2c(n1)n([C@H]1CCOC1)c(=O)n2C [Example 22, (S)-7-methyl-2-((7-methylquinoxalin-6-yl)amino)-9-(tetrahydrofuran-3-yl)-7,9-dihydro-8H-purin-8-one]",–,–,–,–,–,–,5.5,<5,<5,<5,<5,<5
"Cc1cc2ncccc2cc1Nc1ncc2c(n1)n(C1COC1)c(=O)n2C [Example 36, 7-methyl-2-((7-methylquinolin-6-yl)amino)-9-(oxetan-3-yl)-7,9-dihydro-8H-purin-8-one]",–,–,–,–,–,–,6.0,<5,<5.1,<5,<5,<5
"CC(=O)N1CCC(n2c(=O)n(C)c3cnc(Nc4cc5nccnc5cc4C)nc32)CC1 [Example 2, 9-(1-acetylpiperidin-4-yl)-7-methyl-2-((7-methylquinoxalin-6-yl)amino)-7,9-dihydro-8H-purin-8-one]",–,–,–,–,–,–,5.8,<5,<5,<5,<5,<5
"Cc1cc2nnccc2cc1Nc1ncc2c(n1)n([C@H]1CCCOC1)c(=O)n2C [Example 27, (S)-7-methyl-2-((7-methylcinnolin-6-yl)amino)-9-(tetrahydro-2H-pyran-3-yl)-7,9-dihydro-8H-purin-8-one]",–,–,–,–,–,–,6.4,<5,<5,<5,<5,<5
"Cc1cc2nccnc2cc1Nc1ncc2c(n1)n([C@H]1CC[C@@H](O)CC1)c(=O)n2C [Example 13, 9-((1s,4s)-4-hydroxycyclohexyl)-7-methyl-2-((7-methylquinoxalin-6-yl)amino)-7,9-dihydro-8H-purin-8-one]",316,> 10,> 10,> 10,> 10,> 10,–,–,–,–,–,–
"CCN1CCC(n2c(=O)n(C)c3cnc(Nc4cc5cccnc5cc4C)nc32)CC1 [Example 50, 9-(1-ethylpiperidin-4-yl)-7-methyl-2-((7-methylquinolin-6-yl)amino)-7,9-dihydro-8H-purin-8-one]",–,–,–,–,–,–,5.2,<5,<5,<5,<5,<5
